# Experimental data taken from publication PMC8398714, “Synthesis and Evaluation of Biological Activities of Bis(spiropyrazolone)cyclopropanes: A Potential Application against Leishmaniasis” (Molecules, 2021).
# Where two headings read alike, the source gives them in different places.
# Tests used:
# [1] = Cytotoxicity, MTT assay on RAW 264.7 macrophages; format: cell-based; conditions: mouse
# Description: Raw 264.7 (ATCC® TIB-71™) was maintained in Dulbecco’s Modified Eagle Medium (DMEM) (Gibco, Invitrogen, Gibco, Carlsbad, CA, USA) supplemented with 10% fetal bovine serum (FBS) (Eurobio, Les Ulis, France) and 100 IU/mL penicillin + 100 μg/mL streptomycin (Gibco), at 37 °C in a 5% CO2 atmosphere. The medium was renewed once a week. The viability was determined using MTT (Thiazolyl Blue Tetrazolium Bromide) dye assay as described before for leishmanicidal activity assessment, with some variations. Here, 5 × 10^4 cells/well in a final volume of 100 µL were deposited into a 96-well plate, in triplicate. Saponin (2.4 mg/mL) and untreated cells were used as positive control and negative control, respectively. A stock solution was prepared in DMSO and immediately diluted in media to obtain different serial concentrations (100–0.01 µM). After 48 h exposure to the compounds, 10 µL/well of MTT (5 mg/mL MTT in PBS) were added, and the plate was incubated at 37 °C for 2 h in the dark. Cells were pelleted by centrifugation at 4400 rpm for 10 min and the media was removed. Then, 100 µL/well of DMSO were added and the absorbance at 570 nm was recorded; a reference wavelength of 630 nm was used for background subtraction.
# [2] = Stability of solutions by spectroscopic measurements; format: physicochemical; conditions: DMSO solution; 100 μM in DMSO, room temperature
# [3] = tested on: S. cerevisiae (W303 background); assay: Fungicidal activity (growth, OD600) on S. cerevisiae; format: cell-based, Saccharomyces cerevisiae; conditions: 24 h, OD600, concentrations 2.6 to 3000 µM, NA = no activity; for IC50: Saccharomyces cerevisiae, unit inferred, read-out: Inhibitory activity against S. cerevisiae W303 (IC50); for Inhibitory activity against S. cerevisiae W303 (IC50): unit not given
# Description: Next, we determined the IC50 of bis(spiropyrazolone)cyclopropanes on a different eukaryotic model: the classical budding yeast S. cerevisiae. Cells were exposed to the compounds at concentrations ranging from 2.6 to 3000 µM for 24 h. The OD600 was measured to assess cell growth. […] These resistances could be explained by the presence of the fungal cell wall, which could limit the entry of bis(spiropyrazolone)cyclopropanes 4 into the cell. Other mechanisms cannot be ruled out, such as structural differences in molecular targets.
# The antimicrobial activities of the synthesized compounds were tested against yeast S. cerevisiae (background W303), as described by Teran et al.. Concentrations ranging from 2468.7 to 2.4 µM were assayed.
# [4] = MTS cell viability assay on A-549 cells; format: cell-based; conditions: Homo sapiens; 48 h, 15-150 µM, mean ± SEM of triplicates
# [5] = RAW cells, 48 h, MTT, read-out: Cytotoxicity CC50
# [6] = Statistical Analyses S1, unrounded mean of CC50 in RAW cells, unit inferred, read-out: CC50 original values, x.1 (Mean)
SMILES,"CC50 at 48 h [1, 5] [µM]","CC50 at 48 h [1, 6] [µM]",half-life at 100 µM [2] [h],IC50 [3] [µM],IC50 [4] [µM],Inhibitory activity against S. cerevisiae W303 (IC50) [3]
"CC1=NN(c2ccccc2)C(=O)[C@@]12C(c1ccccc1)[C@@]21C(=O)N(c2ccccc2)N=C1C (relative stereo) [4b, (5R*,6R*)-4,10-Dimethyl-2,8,11-triphenyl-2,3,8,9-tetraazadispiro[4.0.4.1]undeca-3,9-diene-1,7-dione]",3.4 ± 1.5,3.44,~7.85,1380 ± 304,–,–
"CC1=NN(c2ccccc2)C(=O)[C@@]12C(c1ccccc1[N+](=O)[O-])[C@@]21C(=O)N(c2ccccc2)N=C1C (relative stereo) [4c, (5R*,6R*)-11-(2-Nitrophenyl)-4,10-dimethyl-2,8-diphenyl-2,3,8,9-tetraazadispiro[4.0.4.1]undeca-3,9-diene-1,7-dione]",2.3 ± 0.2,2.26,–,–,–,–
"CC1=NN(c2ccccc2)C(=O)[C@@]12C(c1cccc([N+](=O)[O-])c1)[C@@]21C(=O)N(c2ccccc2)N=C1C (relative stereo) [4d, (5R*,6R*)-11-(3-Nitrophenyl)-4,10-dimethyl-2,8-diphenyl-2,3,8,9-tetraazadispiro[4.0.4.1]undeca-3,9-diene-1,7-dione]",3.9 ± 1.1,3.92,–,–,94.8 ± 4.54,–
"COc1ccc(C2[C@@]3(C(=O)N(c4ccccc4)N=C3C)[C@]23C(=O)N(c2ccccc2)N=C3C)cc1 (relative stereo) [4e, (5R*,6R*)-11-(4-Methoxyphenyl)-4,10-dimethyl-2,8-diphenyl-2,3,8,9-tetraazadispiro[4.0.4.1]undeca-3,9-diene-1,7-dione]",7.3 ± 2,7.28,–,–,–,–
"COc1ccccc1C1[C@@]2(C(=O)N(c3ccccc3)N=C2C)[C@]12C(=O)N(c1ccccc1)N=C2C (relative stereo) [4f, (5R*,6R*)-11-(2-Methoxyphenyl)-4,10-dimethyl-2,8-diphenyl-2,3,8,9-tetraazadispiro[4.0.4.1]undeca-3,9-diene-1,7-dione]",12.8 ± 1.2,12.8,–,–,–,–
"CC1=NN(c2ccccc2)C(=O)[C@@]12C(c1ccc([N+](=O)[O-])cc1)[C@@]21C(=O)N(c2ccccc2)N=C1C (relative stereo) [4k, (5R*,6R*)-11-(4-Nitrophenyl)-4,10-dimethyl-2,8-diphenyl-2,3,8,9-tetraazadispiro[4.0.4.1]undeca-3,9-diene-1,7-dione]",3.3 ± 1,3.31,–,–,114 ± 6.37,–
"COC(=O)c1ccc(C2[C@@]3(C(=O)N(c4ccccc4)N=C3C)[C@]23C(=O)N(c2ccccc2)N=C3C)cc1 (relative stereo) [4q, (5R*,6R*)-Methyl-4[4,10-dimethyl-2,8-diphenyl-2,3,8,9-tetraazadispiro[4.0.4.1]undeca-3,9-diene-1,7-dione-11-yl]benzoate]",4 ± 0.8,4.01,–,1090 ± 38.5,85.1 ± 10.5,slight measurable effect
"CC1=NN(c2ccccc2)C(=O)[C@@]12C(c1ccc(C(F)(F)F)cc1)[C@@]21C(=O)N(c2ccccc2)N=C1C (relative stereo) [4r, (5R*,6R*)-11-(4-Trifluoromethylphenyl)-4,10-dimethyl-2,8-diphenyl-2,3,8,9-tetraazadispiro[4.0.4.1]undeca-3,9-diene-1,7-dione]",6.5 ± 0.9,6.48,–,1270 ± 119,78.7 ± 7.9,–
"CC1=NN(c2ccccc2)C(=O)[C@@]12C(c1ccc(OC(F)(F)F)cc1)[C@@]21C(=O)N(c2ccccc2)N=C1C (relative stereo) [4s, (5R*,6R*)-11-(4-Trifluoromethoxyphenyl)-4,10-dimethyl-2,8-diphenyl-2,3,8,9-tetraazadispiro[4.0.4.1]undeca-3,9-diene-1,7-dione]",8.6 ± 3.2,8.63,–,789 ± 37.3,78.5 ± 7.08,slight measurable effect
"CC1=NN(c2ccccc2)C(=O)[C@@]12C(c1cccc(F)c1)[C@@]21C(=O)N(c2ccccc2)N=C1C (relative stereo) [4t, (5R*,6R*)-11-(3-Fluorophenyl)-4,10-dimethyl-2,8-diphenyl-2,3,8,9-tetraazadispiro[4.0.4.1]undeca-3,9-diene-1,7-dione]",2.7 ± 0.7,2.75,–,–,–,–
"CSc1ccc(C2[C@]3(C(=O)N(c4ccccc4)N=C3C)[C@@]23C(=O)N(c2ccccc2)N=C3C)cc1 (relative stereo) [4u, (5R*,6R*)-11-(4-Thiomethylphenyl)-4,10-dimethyl-2,8-diphenyl-2,3,8,9-tetraazadispiro[4.0.4.1]undeca-3,9-diene-1,7-dione]",9.3 ± 3.4,9.3,–,–,–,–
